How the values were obtained:
[1] = hygroscopicity: water content after storage in a dessicator; assay type: physicochemical; conditions: after 24 hours inside a dessicator at 60° C. and a humidity of 100%
Protocol: Aripiprazole Anhydrous Crystals B employed in the present invention have low hygroscopicity. For example, Aripiprazole Anhydrous Crystals B employed in the present invention maintain a water content of 0.4% or less after 24 hours inside a dessicator set at a temperature of 60° C. and a humidity of 100%.
Well-known methods of measuring water content can be used as long as they are methods commonly used for measuring the water content of crystals. For example, a method such as the Karl Fischer method can be used.

[2] = at room temperature; cited from earlier work

O=C1CCc2ccc(OCCCCN3CCN(c4cccc(Cl)c4Cl)CC3)cc2N1 [Aripiprazole Anhydrous Crystals B, Aripiprazole]
water content [1]: ≤ 0.4%

O=C1CCc2ccc(OCCCCN3CCN(c4cccc(Cl)c4Cl)CC3)cc2N1 [Aripiprazole]
aqueous solubility [2]: < 1 µg/mL

Reference: US8952013B2, “Controlled release sterile injectable aripiprazole formulation and method” (Otsuka Pharmaceutical Co., Ltd., priority 2003, dated 2015)
